# According to US10654896B2, “FoxP3-binding peptides and uses thereof” (FUNDACIÓN PARA LA INVESTIGACIÓN MÉDICA APLICADA, priority 2016, dated 2020):
# Where a SMILES comes first, the peptide text is derived from it. [ ]: non-standard residue; d: D form.
# Key:
# [1] = Human liver microsomal stability; assay type: in vitro ADME; details: human liver microsomes; for remaining at 20 min, 1 μM: read-out: % Remaining after 20 min; for remaining at 1 h, 1 μM: 60 min, read-out: % Remaining after 60 min; for half-life: peptide 1 μM, read-out: t1/2
# [2] = Mouse liver microsomal stability; assay type: in vitro ADME; details: mouse liver microsomes; for remaining at 20 min, 1 μM: read-out: % Remaining after 20 min; for remaining at 1 h, 1 μM: 60 min, read-out: % Remaining after 60 min; for half-life: peptide 1 μM
# [3] = target: T1, FOXP3/FOXP3 homodimerization (Homo sapiens, UniProt Q9BZS1); assay: FOXP3/FOXP3 homodimerization inhibition (Alphascreen); assay type: biochemical
# T1 construct: made in house; host or cells: E. coli BL21 (DE3)
# T1 sequence (Q9BZS1 1-431): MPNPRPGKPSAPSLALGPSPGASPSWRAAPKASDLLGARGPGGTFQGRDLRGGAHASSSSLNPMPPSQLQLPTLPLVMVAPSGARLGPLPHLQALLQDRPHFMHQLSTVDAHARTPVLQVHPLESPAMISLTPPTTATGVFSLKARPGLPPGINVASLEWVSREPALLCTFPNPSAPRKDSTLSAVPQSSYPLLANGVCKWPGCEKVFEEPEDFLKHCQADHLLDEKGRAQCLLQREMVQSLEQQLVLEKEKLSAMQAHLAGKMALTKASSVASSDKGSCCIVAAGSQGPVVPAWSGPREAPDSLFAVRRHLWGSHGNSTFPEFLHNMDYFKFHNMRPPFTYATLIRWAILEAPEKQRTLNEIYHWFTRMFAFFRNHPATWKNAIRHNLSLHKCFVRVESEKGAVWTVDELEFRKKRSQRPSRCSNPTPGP
# Excerpt: Plasmid pET20b FOXP3-His was generated to produce the human FOXP3 tagged with 6 histidines at the C terminus of the protein. Briefly, plasmid pDEST15-FOXP3 (provided by Dr. Casal, Madrid, Spain) was used as template to amplify FOXP3 by PCR using the primers Upper FOXP3 Ndel catatgcccaaccccaggc (SEQ ID NO: 55) and Lower FOXP3 […] (SEQ ID NO: 56). The resulting fragment was subcloned in pET20b at Ndel and NotI sites. pET45b His-Runx1 was obtained by PCR of activated human CD4 T cells obtained from healthy volunteers (after the signature of an informed consent) using the primers Upper Runx1 atgcgtatccccgtagatg (SEQ ID NO: 57) and Lower Runx1 […] (SEQ ID NO: 58) and the fragment was cloned in pcDNA3.1. Then, pET45b and pcDNA3.1-Runx1 were digested with BamHI and NotI and ligated to obtain pET45b-Runx1. Plasmids were used to transform BL21 cells (DE3; Novagen, Schwalbach, Germany) for the expression of the recombinant protein. The transformed BL21 cells were grown in LB medium at 37° C. (1 liter of final culture medium) (with ampicilin 0.1 mg/ml). Once the OD of the culture was between 0.5 and 1.0, IPTG (0.4 mM, final concentration) was added. Bacteria were then cultured overnight in agitation and centrifuged for 10 min at 8000 rpm. Cell pellet was then resuspended in 4 ml Tris-HCl 0.1 M and frozen at −80° C. Cell pellet was then thawed and incubated with lisozyme (25 KU) and a protease inhibitor cocktail for 15 min at 30° C. before cell lysis induced with a French-press. The resultant pool was then centrifuged during 20 min at 11.000 rpm). The recombinant protein was purified from the soluble fraction of French-press cell extracts by affinity chromatography (Histrap, Pharmacia) following manufacturer's instructions and using an FPLC platform (AKTA, Pharmacia). Plasmid pDEST15-FOXP3 encoding the fusion protein GST-FOXP3 (GST fused to the isoform A from human FOXP3 gene), was transformed into BL21 cells for the expression of the recombinant protein. GST-FOXP3 protein was purified from the soluble fraction of cell extracts obtained, as described above, by affinity chromatography (GSTrap; Amersham, Piscataway, N.J.) using a fast protein liquid chromatography platform (AKTA; Amersham) following manufacturer's instructions. The eluted proteins were desalted using Hitrap desalting columns (Pharmacia) and analyzed by SDS-PAGE using Coomassie blue (Bio-Safe Coomassie reagent; Bio-Rad, Hercules, Calif.) and by Western blot.
# It has been described that dimerization of FOXP3 is required for its function as a transcriptional regulator. Moreover, interaction between FOXP3 and the transcription factor Runx1, is crucially required for normal hematopoiesis including thymic T-cell development, but also for Treg suppressor activity (Reviewed in Lozano et al, Front Oncol. 2013, 3:294). Both activities are mediated by the intermediate region of Foxp3, which is the area of interaction between P60 and Foxp3. Thus, we studied the effect of P60 and their mutants on the FOXP3/Runx1 heterodimerization, as well as FOXP3/FOXP3 homodimerization by Alphascreen technology according to the manufacturer's instructions (Perkin Elmer, Benelux). AlphaScreen™ is a bead-based technology that is designed to measure the proximity of donor and acceptor beads conjugated to biomolecules of interest.
# To measure FOXP3/FOXP3 homodimerization, recombinant Foxp3 was expressed with a Histine tag as disclosed in section (1) above, and captured by Nickel chelate Acceptor beads (Cat. AL108 Perkin Elmer) following manufacturer's instructions. The other version of recombinant FOXP3, expressing a GST tag (prepared as disclosed in section (1) above), was captured by Glutathione Donor beads (Perkin Elmer Cat. 6765300), following manufacturer's instructions. When the two proteins interacted together, the Donor and Acceptor beads come into proximity. Excitation of the Donor beads results in emission of light from the Acceptor beads. […]
Compound,"remaining at 20 min, 1 μM [1]","remaining at 1 h, 1 μM [1]",half-life [1],"remaining at 20 min, 1 μM [2]","remaining at 1 h, 1 μM [2]",half-life [2],inhibition at 20 µM ([3]; read-out: Dimerization inhibition % inhibition (20 μM)),inhibition at 100 µM ([3]; read-out: Dimerization inhibition % inhibition (100 μM))
CSCC[C@H](NC(=O)[C@H](C)NC(=O)[C@H](Cc1ccccc1)NC(=O)[C@H](Cc1ccccc1)NC(=O)[C@@H]1CCCN1C(=O)[C@H](Cc1c[nH]c2ccccc12)NC(=O)[C@H](CCSC)NC(=O)[C@H](CCCCN)NC(=O)[C@H](CCCNC(=N)N)NC(=O)[C@H](Cc1ccccc1)NC(=O)[C@H](CO)NC(=O)[C@H](CCC(N)=O)NC(=O)[C@H](Cc1ccccc1)NC(=O)[C@@H](CC(=O)O)NC(=O)[C@@H](N)CCCNC(=N)N)C(=O)O [compound 3] (H-R[dD]FQSFRKMWPFFAM-OH),0%,0%,< 2.5 min,0%,0%,< 2.5 min,,
CSCC[C@H](NC(=O)[C@H](C)NC(=O)[C@H](Cc1ccccc1)NC(=O)[C@H](Cc1ccccc1)NC(=O)[C@@H]1CCCN1C(=O)[C@H](Cc1c[nH]c2ccccc12)NC(=O)[C@H](CCSC)NC(=O)[C@H](CCCCN)NC(=O)[C@H](CCCNC(=N)N)NC(=O)[C@H](Cc1ccccc1)NC(=O)[C@H](CO)NC(=O)[C@H](CCC(N)=O)NC(=O)[C@H](Cc1ccccc1)NC(=O)[C@H](C)NC(=O)[C@H](N)CCCNC(=N)N)C(=O)O [compound 46] (H-[dR]AFQSFRKMWPFFAM-OH; N-terminus and C-terminus assumed),,,,,,,90%,
CSCC[C@@H]1NC(=O)[C@H](C)NC(=O)[C@H](Cc2ccccc2)NC(=O)[C@H](Cc2ccccc2)NC(=O)[C@@H]2CCCN2C(=O)[C@H](Cc2c[nH]c3ccccc23)NC(=O)[C@H](CCSC)NC(=O)[C@H](CCCCN)NC(=O)[C@H](CCCNC(=N)N)NC(=O)[C@H](Cc2ccccc2)NC(=O)[C@H](C)NC(=O)[C@H](CCC(N)=O)NC(=O)[C@H](Cc2ccccc2)NC(=O)[C@H](C)NC(=O)[C@H](CCCNC(=N)N)NC1=O [compound 50] (cyclo(RAFQAFRKMWPFFAM)),6.2%,0%,5.3 min,12%,0%,8 min,,
H-RDFQSFRKMWPFFAM-OH [compound 1],,,,,,,,59.7%
